Laboratory results: patent publication US20220177471A1, “N-1 BRANCHED ALKYL SUBSTITUTED IMIDAZO[4,5-C]QUINOLINE COMPOUNDS, COMPOSITIONS, AND METHODS” (3M INNOVATIVE PROPERTIES COMPANY, priority 2019, published 2022)
Like-named read-outs stand apart in the source and are kept apart here.

Tested on: Human peripheral blood mononuclear cells (PBMC)
Assay: Cytokine induction in human cells (PBMC), cytokines by ELISA / multiplex bead assay
Type: cell-based
Details: human PBMC, 21-24 hours, lowest concentration giving cytokine level at least 2x negative control
Experimental: Whole blood was obtained from healthy human donors and collected by venipuncture into vacutainer tubes or syringes containing EDTA. Human peripheral blood mononuclear cells (PBMC) were purified from the whole blood by density gradient centrifugation. Histopaque 1077 (15 mL, Sigma, St. Louis, Mo.) was transferred to 6×50 mL sterile polypropylene conical tubes. The Histopaque was overlayed with 15-25 mL of blood diluted 1:2 in Hank's Balanced Salts Solution (HBSS) (Gibco, Life Technologies, Grand Island, N.Y.). The tubes were then centrifuged at 1370 revolutions per minute (rpm) for 30 minutes at 20° C., with no brake (400×g, GH 3.8 A Rotor).
The interface (buffy coat) containing the PBMC was collected and placed in a new sterile 50 mL conical polypropylene centrifuge tube. The PBMC were mixed with an equal volume of HBSS (about 20 mL from the interface and about 20 mL of HBSS), and then centrifuged at 1090 rpm, 10 minutes, 20° C., with brake (270×g, GH 3.8 A Rotor). After completing centrifugation, the cells were resuspended in 2-3 mL ACK Red blood cell lysis buffer (ammonium chloride potassium solution, Gibco, Life Technologies) and incubated for 2-5 minutes at 20° C. Next, HBSS (40 mL) was added to the cells, and the sample was centrifuged at 270×g for 10 minutes at 20° C. The supernatant was decanted, and the cell pellet was resuspended in 5 mL AIM V Medium (Gibco, Life Technologies). Cell aggregates and debris were removed by filtering the cell solution through a BD Falcon 70 micron nylon cell strainer (BD Biosciences, San Jose, Calif.).
The number of viable cells was determined by counting with a Miltenyi FACS instrument (Miltenyi Biotec Inc., San Diego, Calif.) or by using a hemacytometer. For determining cell viability with a hemacytometer, the cells were diluted 1/10 in 0.4% trypan blue and HBSS (specifically, 50 microliter of trypan blue+40 microliter of HBSS+10 microliter of cell solution were added to a microfuge tube and mixed). Ten microliters of the diluted cells were then applied to the hemacytometer, and the number of viable PBMC were determined by microscopy.
The PBMC sample was then resuspended in 96-well plates at a concentration of 8×10^5 cells/well in 0.1 mL of AIM-V medium. Each compound was solubilized in dimethyl sulfoxide (DMSO) to create a 3 mM stock solution. The stock solution was then further diluted with AIM-V medium to prepare the serial dilutions. The diluted compound (100 microliters) was then transferred to the PBMCs to produce testing sets with final compound concentrations of either 30, 10, 3.3, 1.1, 0.37, 0.12, 0.04, 0.01 micromolar (testing set A); 100, 30, 10, 3.3, 1.1, 0.37, 0.12, 0.04, 0.01, 0.005 micromolar (testing set B); 100, 33.3, 11.1, 3.7, 1.2, 0.41 micromolar (testing set C); or 100, 50, 30, 10, 3.3, 1.1, 0.37, 0.12, 0.04 micromolar (testing set D). The plates also had both positive and negative controls. The negative control wells contained only AIM-V medium with no example compound. The positive control wells contained a control set of imiquimod serially diluted to concentrations of either 30, 10, 3.3, 1.1, 0.37, 0.12, 0.04, 0.01 micromolar (control set A); 100, 30, 10, 3.3, 1.1, 0.37, 0.12, 0.04, 0.01, 0.005 micromolar (control set B); 100, 33.3, 11.1, 3.7, 1.2, 0.41 micromolar (control set C); or 100, 50, 30, 10, 3.3, 1.1, 0.37, 0.12, 0.04 micromolar (control set D). The concentrations used in the control set were selected to match the concentrations used in the testing set. The plates were then cultured at 37° C./5% CO2 for 21-24 hours. Cell-free supernatants were harvested by centrifuging the 96-well plates at 2100 rpm, 23° C. for 10 minutes. Approximately 160 microliters of the supernatant was then stored in a NUNC 96-well plate, covered with the compression cap and stored at −80° C. until the cytokine analysis was done.
IFN-alpha cytokine levels (picograms/mL) were measured by ELISA (human IFN-alpha, pan specific, Mabtech, Cincinnati, Ohio). […]

Work on `C[C@@H](n1cnc2c(N)nc3ccccc3c21)C(C)(C)F` [Example 20, 1-[(1R)-2-fluoro-1,2-dimethyl-propyl]imidazo[4,5-c]quinolin-4-amine] yielded a minimal effective concentration (ELISA, read-out: MEC to Induce Cytokine: IFN-alpha) of 10 µM, a minimal effective concentration (multiplex bead assay, read-out: MEC to Induce Cytokine: IFN-gamma) of 30 µM and a minimal effective concentration (multiplex bead assay, read-out: MEC to Induce Cytokine: TNF-alpha) of 10 µM.
